Measured values reported in US20230320994A1, “FUNCTIONAL IONIZABLE PHOSPHOLIPIDS” (The Board of Regents of The University of Texas System, priority 2020, published 2023).

Test system: C57BL/6 mice
Test: In vivo tolerability: kidney and liver function markers
Conditions: 24 hours post injection, compared with PBS
Method: 10A1P16-MDOA (spleen specific) iPLNPs were administrated intravenously (IV) to C57BL/6 mice (0.25 mg kg−1). Lipopolysaccharide (LPS, 5 mg kg−1, IP) was used as the positive control and PBS (IV) was examined as the negative control. 24 hours post injection, kidney function (BUN and CREA) and liver function (ALT and AST) were evaluated. […] Data are presented as mean±s.d. (n=3 biologically independent mice). Statistical significance was analyzed by the two-tailed unpaired t-test: ****, P<0.0001; ***, P<0.001; **, P<0.01; *, P<0.05.

## Lipopolysaccharide [LPS]
  kidney function (BUN and CREA) and liver function (ALT and AST): severe kidney and liver injury
